Results reported in patent US20040152631A1, “Methods for manipulating ejaculatory reflex and sensation of ejaculation and for treating sexual dysfunction” (priority 2002, published 2004).
Values joined by “and” are separate entries in the source; they are usually repeats but may differ in a detail not shown here. Equal entries are not always repeated.

Legend:
male rats = assay: Copulatory behavior after 8-OH-DPAT; format: in vivo; conditions: 0.8 mg/kg s.c. 30 minutes before test; E1-DP rats, n=3
Experimental: All male and female rats are sexually experienced. […] The female rats are bilaterally ovariectomized two weeks prior to testing. Sexual receptivity is induced using a standard regimen of exogenous estrogen and progesterone, similar to that used for the stimulus females, described above. One week before testing females receive hormone treatment and mating experience with sexually experienced male partners. All testing of experimental groups is performed four hours after onset of the dark period, in a rectangular mating arena (60-45-50 cm), under dim red illumination. After completion of the mating tests, the sexual partners are removed, and experimental animals remained in the test cage for an additional 60 minutes until sacrifice.
The number of mounts, intromissions and total duration of the tests, are recorded for analysis of copulatory behavior. Numbers of mounts and intromissions, as well as duration of test are compared using a one-way ANOVA. Post hoc comparisons are made using the Scheffe test with an alpha of 0.05 required for rejection of the null hypothesis.
The purpose of this example is to investigate neural activation of lumbar spinal cord in male rats that display minimal sexual activity prior to ejaculation. Therefore, male rats are treated with 8-hydroxy-2-(di-n-propylamino) tetralin (8-OH-DPAT), which decreases the number of mounts and intromissions prior to ejaculation. […]

LSt neurons [1] = assay: Fos-IR in galanin-IR LSt neurons after 8-OH-DPAT; format: in vivo, male rats; conditions: 0.8 mg/kg s.c.
Experimental: Activation of LSt neurons is assessed using Fos immunoreactivity (IR) as a marker for neural activation and galanin or CCK-IR to identify LSt cells.
One hour following the end of the behavioral test, animals are anesthetized using sodium pentobarbital (200 mg/kg; i.p.) and perfused transcardially with 100 ml 0.9% saline, followed by 500 ml of 4% paraformaldehyde in 0.1 M sodium phosphate buffer (PB, pH 7.3-7.4). Brain and spinal cords are removed and post fixed for 1 hr at room temperature in the fixative. Coronal sections of thoracic (T), lumbar (L) and sacral (S) spinal cord (T10-S4) are cut at 35 μm on a Microm freezing microtome (Richard Allen, Kalamazoo, Mich.) and collected in twelve parallel series in cryorotectant solution (30% sucrose, 30% ethylene glycol in 0.1 M PB; Watson et al, 1985). In addition, coronal sections ( 35 µm) through thalamus are cut and stored in four parallel series.
All incubations are performed at room temperature with gentle agitation. Series of spinal cord sections ([…]) are rinsed extensively in phosphate buffered saline (PBS) between incubations. Free-floating sections are blocked with 1% H2O2 for 10 min at room temperature and then soaked for one hour in incubation solution (PBS containing 0.1% bovine serum albumin and 0.4% triton X-100). Next, sections are incubated overnight with a primary antiserum in incubation solution to recognize Fos (polyclonal anti-Fos antiserum raised in rabbit; 1:10,000; Santa Cruz, Santa Cruz, Calif.). […]
Analysis of labeling for galanin or CCK, Fos, and dual labeling for Fos and Galanin or CCK, is performed on a Leica light microscope at 4×-40× magnification. Neurons single labeled for galanin or CCK are determined by brown staining of cytoplasm with a nucleus devoid of blue-black (Fos) reaction product. […] Dual labeling is expressed as the percentage of galanin or CCK cells that expressed Fos. […]

LSt neurons [2] = assay: Cell counts (galanin-IR, SPR-IR, NeuN-IR) in L3-L4 spinal cord after intraspinal SSP-SAP or SAP; format: in vivo; conditions: complete = galanin-IR LSt neurons less than 1/3 of untreated rats
Description: First a membrane target located on the LSt neurons is identified. […] Identification of the SPR receptor on LSt cells enable the use of the targeted toxin SSP-SAP, which consists of the ribosome inhibitor protein toxin saporin (SAP) conjugated to a substance P analogue (SSP) with high affinity for SPR. SSP-SAP is infused into the L3-4 spinal cord at the location of the LSt cells in sexually experienced or sexually naive male rats. Male rats are allowed to mate with a receptive female during 6 pre-operative sessions (3 ejaculations or 100 minutes each).
All procedures are approved by the Animal Care and use Committee of the University of Cincinnati, Ohio and conformed to NIH guidelines involving vertebrate animals in research. Male rats are deeply anesthetized using ketamine/xylazine and laminectomy of L3 and L4 is performed. […]
Control animals are injected with non-conjugated equimolar concentrations of SAP. […] Latencies and numbers of mounts, intromissions, and ejaculations are recorded, and vaginas of females are checked for seminal plugs multiple times during mating tests. […]
Non-specific lesioning is determined by counting neurons visualized by neuronal marker N-IR. SPR containing cells are also counted in a standard area in the dorsal horn, as illustrated in FIG. 2A (area 2), to determine if lesioning is restricted to the area surrounding the central canal. […]

LSt neurons [3] = assay: Optical density of galanin-IR and SPR-IR around IML, CAN and SPN after LSt lesion; format: in vivo, rats
Description: In these areas galanin-IR is present in fibers, while SPR-IR is located in neurons and fibers. […] In contrast, SPR-IR is not reduced following LSt lesions.
Following the final behavior test, animals are perfused intracardially with 4% paraformaldehyde and spinal cord tissue is collected for further processing. Spinal cords are cut into 35μm coronal sections and collected in 12 parallel series. Adjacent sections are stained for galanin, SPR or neuronal marker N using the general procedures as described in W. Truitt, M. Shipley, J. Veening, L. Coolen, J. Neurosci (2002). The primary antibodies and concentrations that are used include: Galanin—rabbit anti-galanin at 1:80,000 (PenLabs), Substance P receptor—rabbit anti-NK1 at 1:1,000 (Advanced Targeting Systems), and Neuronal marker N—mouse anti-NeuN at 1:10,000 (Chemicon).

LSt neurons [4] = assay: Sexual behavior tests after lesion surgery; format: in vivo, male rats; conditions: 6 post-surgery tests, 100 minutes with receptive female
Experimental: (§1) Control animals are injected with non-conjugated equimolar concentrations of SAP. […] Rats with obvious motor impairment after surgery (n=10; 7 injected with SAP; 3 injected with SSP-SAP) are excluded from the study. Sexual behavior is first tested 10 days after lesion surgery, and during 5 subsequent twice-weekly tests. The trials are performed during the dark phase of the light cycle and consisted of the male rat being placed into the testing cage for 100 minutes with a receptive female. Stimulus females were ovariectomized and implanted subcutaneously (s.c.) with 5% 17-beta-estradiol benzoate silastic capsules. Progesterone (500 μg in 0.1 ml of sesame oil) was injected (s.c.) 4-6 hours prior to testing to induce sexual receptivity. Latencies and numbers of mounts, intromissions, and ejaculations are recorded, and vaginas of females are checked for seminal plugs multiple times during mating tests.
The effects of LSt lesions on display of sexual behavior are assessed in the three groups described above. LSt lesions have a dramatic effect on sexual behavior. […] Furthermore, ablation of LSt neurons appears to selectively block ejaculatory behavior while not affecting other components of sexual behavior.

[5] = Motor impairment after surgery; format: in vivo; conditions: number of SAP-injected control rats excluded; 10 excluded in total (3 SSP-SAP)
Experimental: as §1

Compound | average number of intromissions prior to ejaculation (male rats) | average number of mounts prior to ejaculation (male rats) | activation of Galanin neurons (Fos) (LSt neurons [1]; 8-OH-DPAT alone, no exposure to female (DPc group)) | Galanin-IR neurons containing Fos-IR (LSt neurons [1]; E1-DP males, after one ejaculation) | mean number of galanin-IR neurons (LSt neurons [1]; two groups (one ejaculation / no female), order of values not stated) | lesions of LSt neurons (LSt neurons [2]) | CAN-SPR optical density (LSt neurons [3]; Substance P receptor-IR around central autonomic nucleus, group in label) | IML-SPR optical density (LSt neurons [3]; Substance P receptor-IR around intermediolateral column, group in label) | SPN-SPR optical density (LSt neurons [3]; Substance P receptor-IR around sacral parasympathetic nucleus, group in label) | CAN-galanin optical density (LSt neurons [3]; galanin-IR around central autonomic nucleus, group in label) | IML-galanin optical density (LSt neurons [3]; galanin-IR around intermediolateral column, group (SAP, SSP-il, SSP-les) in label) | SPN-galanin optical density (LSt neurons [3]; galanin-IR around sacral parasympathetic nucleus, group in label) | display of ejaculatory behavior (LSt neurons [4]) | rats with obvious motor impairment after surgery (excluded) [5]
CCCN(CCC)C1CCc2cccc(O)c2C1 (centres unmarked) [8-OH-DPAT, 8-hydroxy-2-(di-n-propylamino) tetralin] | 1.33±0.67 | 2.33±1.20 | do not result in activation | 85.55%±1.76 | 33.67±4.06 and 33.33±5.53 |  |  |  |  |  |  |  |  | 
saporin |  |  |  |  |  | no lesions | 380.26 ± 39.06 pixels (×1,000) | 209.91 ± 30.92 pixels (×1,000) | 392.68 ± 50.65 pixels (×1,000) | 128.84 ± 25.81 pixels (×1,000) | 58.82 ± 12.85 pixels (×1,000) | 137.75 ± 14.99 pixels (×1,000) | continue to ejaculate regularly | 7
